The values below are quoted from earlier work in Sander's compilation of Henry's law constants (doi:10.1063/1.1562632).

Molecules are shown by their SMILES. Values joined by “and” are separate entries in the source; they are usually repeats but may differ in a detail not shown here. Equal entries are not always repeated.

The series can be described thus: Henry solubility constant Hcp at 298.15 K (mol/(m3 Pa)). The settings on record: reference: Li et al. (2003); cited value.
Consider `Clc1cc(-c2cc(Cl)c(Cl)c(Cl)c2Cl)c(Cl)c(Cl)c1Cl` [2,2',3,3',4,4',5,5'-octachlorobiphenyl], for which the “Henry solubility constant Hcp” value is 0.15 and 0.23.
With `Clc1cc(Cl)c(-c2ccc(Cl)c(Cl)c2Cl)cc1Cl` [2,2',3,4,4',5'-hexachlorobiphenyl], the “Henry solubility constant Hcp” value is 0.025 and 0.033.
With `Clc1cc(Cl)c(-c2cc(Cl)c(Cl)cc2Cl)cc1Cl` [2,2',4,4',5,5'-hexachlorobiphenyl], the “Henry solubility constant Hcp” value is 0.04 and 0.051.
For the molecule `Clc1cc(Cl)c(-c2c(Cl)cc(Cl)cc2Cl)c(Cl)c1` [2,2',4,4',6,6'-hexachlorobiphenyl], the “Henry solubility constant Hcp” value was 0.013 and 0.011.
On to `Clc1ccc(Cl)c(-c2cc(Cl)c(Cl)cc2Cl)c1` [2,2',4,5,5'-pentachlorobiphenyl], for which the “Henry solubility constant Hcp” value was 0.032 and 0.041.
With `Clc1ccc(Cl)c(-c2cc(Cl)ccc2Cl)c1` [2,2',5,5'-tetrachlorobiphenyl], the “Henry solubility constant Hcp” value was 0.035 and 0.04.
As to `Clc1ccc(-c2cc(Cl)c(Cl)cc2Cl)cc1Cl` [2,3',4,4',5-pentachlorobiphenyl], the “Henry solubility constant Hcp” value was 0.031 and 0.069.
With `Clc1ccc(-c2ccc(Cl)c(Cl)c2Cl)cc1Cl` [2,3,3',4,4'-pentachlorobiphenyl], the “Henry solubility constant Hcp” value is 0.03 and 0.072.
`Clc1cc(-c2ccccc2)c(Cl)c(Cl)c1Cl` [2,3,4,5-tetrachlorobiphenyl]: the “Henry solubility constant Hcp” value is 0.049 and 0.05.
For `Clc1ccc(-c2cc(Cl)ccc2Cl)cc1` [2,4',5-trichlorobiphenyl], the “Henry solubility constant Hcp” value was 0.027 and 0.029.
In the case of `Clc1ccc(-c2ccccc2Cl)cc1` [2,4'-dichlorobiphenyl], the “Henry solubility constant Hcp” value was 0.038 and 0.044.
`Clc1ccc(-c2ccc(Cl)cc2)cc1` [4,4'-dichlorobiphenyl]: the “Henry solubility constant Hcp” value is 0.07 and 0.075.
